Where only a bound is given, the exact number is not on record here.

Common to all, as to type: cell-based
In assay [1] the test system is MV-411 cell line. Description: Inhibition of cell proliferation, MV-411 (CCK-8). Particulars: Homo sapiens, MV4-11, 120 h, MV411 cells, 5 days, read-out: Inhibition activity on the proliferation of different cell lines MV411 (IC50). As for the experimental part:
• MV-411 cell line (COBIER, CBP-60522) • FBS (GEMINI, Cat. No. 900-108) • 0.01M PBS (Biosharp, Cat. No. 162262) • IMDM (Hyclone, Cat. No. SH30228.01) • Penicillin-Streptomycin (Gibco, Cat. No. 15140122) • DMSO (Sigma, Cat. No. D5879) • Cell counting kit-8 (Signalway Antibody, Cat. No. CP002) • Centrifuge Tube, 15 ml (Excell Bio, Cat. No. CS015-0001) • Cell Culture Dish, (WHB, Cat. No. CS016-0128) • 96-well cell culture cluster (Corning, Cat. No. 3599)
• (1) Cell culture medium: IMDM medium+10% FBS+1% Pen Strep; • (2) PBS buffer: PBS powder was dissolved in 2 L of ultrapure water and sterilized;
(§1) (1) MV-411 cells were cultured in the cell culture medium, and then well-growing cells were selected and inoculated in a 96-well plate at 80 μL/well, with 2×10^4 cells/well. The plate was incubated overnight in a 5% CO2 cell incubator at 37° C.
(§2) (2) 10 mM storage solution of each drug was prepared using dimethylsulfoxide (DMSO). The stock solution was diluted in a ratio of 1:3 with DMSO before use, and then the solution was serially diluted in a ratio of 1:3, to obtain 9 gradient concentrations. Each concentration was further diluted with the medium in a ratio of 1:200 (to ensure that the DMSO concentration in the culture system was 0.1%). Two wells were set for each concentration. 20 μL of each compound solution was added to the cell culture well (with a final concentration of 10 μM, 3.3 μM, 1.1 μM . . . ). The plate was gently shaken and mixed. Additionally, 3 negative control wells (only containing cells) and 3 blank control wells (only containing the medium) were included (6 wells were each added with 20 μL of DMSO diluted with the medium in a ratio of 1:200).
(§3) (1) After 5 days of cultivation, 10 μL of CCK-8 was added to each well, and then the plate was further cultured for 3 h at 37° C. in a 5% CO2 cell incubator.
(§4) (2) The absorbance (OD value) was measured at 450 nm with a multifunctional microplate reader. (3) The data were analyzed using the Dose-response-inhibition equation in GraphPad Prism8 software to obtain the IC50 value.

The target in assay [2] is T1, SHP2 protein (Homo sapiens, UniProt Q06124).
T1 sequence (Q06124 1-593): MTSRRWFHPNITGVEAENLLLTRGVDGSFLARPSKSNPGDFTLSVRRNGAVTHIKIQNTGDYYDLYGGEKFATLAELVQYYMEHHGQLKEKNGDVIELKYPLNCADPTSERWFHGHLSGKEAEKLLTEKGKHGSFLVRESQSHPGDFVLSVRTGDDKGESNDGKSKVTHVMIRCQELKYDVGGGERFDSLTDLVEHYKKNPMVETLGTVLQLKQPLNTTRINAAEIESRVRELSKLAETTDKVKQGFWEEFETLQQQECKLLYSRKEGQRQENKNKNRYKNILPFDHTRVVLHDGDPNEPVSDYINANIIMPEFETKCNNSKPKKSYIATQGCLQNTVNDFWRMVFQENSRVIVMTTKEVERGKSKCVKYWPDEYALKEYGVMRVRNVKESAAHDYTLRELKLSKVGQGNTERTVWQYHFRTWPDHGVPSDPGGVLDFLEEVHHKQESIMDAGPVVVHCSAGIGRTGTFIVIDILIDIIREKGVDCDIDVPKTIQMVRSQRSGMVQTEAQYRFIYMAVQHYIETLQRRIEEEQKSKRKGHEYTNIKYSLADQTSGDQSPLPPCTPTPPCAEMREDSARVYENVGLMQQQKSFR
Kind of assay: Degradation activity on SHP2 protein in NCI-H358 cells (Western blot, DC50). Details: endogenous in cells. The note with it: read-out: Degradation activity for differenct cell lines NCI-H358 (DC50). A digest of the protocol:
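DC50 is the concentration degrading 50% of SHP2 relative to DMSO control. It was derived by fitting Western blot band densitometry (anti-SHP2, GAPDH reference) from cells exposed 24 h to 0.1–100 nM compound in 0.1% DMSO.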
(In general: In western blotting, separated proteins are transferred to a membrane and probed.)

The subject of assay [3] is NCI-H358. Kind of assay: Inhibition of cell proliferation, NCI-H358 (CCK-8). Particulars: Homo sapiens, NCI-H358 cells, read-out: Inhibition activity on the proliferation of different cell lines NCI-H358 (IC50). As for the experimental part:
as §1, §2, §3, §4
(§5) Using a similar method, the IC50 value (nM) for the inhibitory activity of the compound according to the present invention against different cell lines was obtained, and the results are shown in Table 3 (++++: IC50>5 μM; +++: 1 μM<IC50<5 μM; ++: IC50<1 μM).

Assay [4] concerns MIA Paca-2. Description: Inhibition of cell proliferation, MIA Paca-2 (CCK-8). Particulars: Homo sapiens, MIA Paca-2 cells, read-out: Inhibition activity on the proliferation of different cell lines MIA Paca-2 (IC50). As for the experimental part: as §1, §2, §3, §4, §5

`CC1(N)CCN(c2cnc(Sc3cccc(NC(=O)CCCCCCCCN4CCN(c5ccc(C(=O)NCc6ccc7c(c6)CN(C6CCC(=O)NC6=O)C7=O)nn5)CC4C(F)(F)F)c3)cn2)CC1` (stereo not drawn) [Compound 174]: the IC50 in assay [1], in assay [3] and in assay [4] was 1 to 5 µM in each case. The DC50 in assay [2] was below 0.1 µM.

Regarding `NC1(CO)CCN(c2cnc(Sc3cccc(NC(=O)CCCCCCN4CC5(CCN(c6ccc(C(=O)NCc7ccc8c(c7)CN(C7CCC(=O)NC7=O)C8=O)nn6)C5)C4)c3)cn2)CC1` (stereo not drawn) [Compound 168], the IC50 in assay [1] was below 1 µM; in assay [3] it was 1 to 5 µM; in assay [4], 1 to 5 µM. Besides, the DC50 in assay [2] was in the range of 0.1 to 1 µM.

Regarding `CCC1(N)CCN(c2cnc(Sc3cccc(NC(=O)CCCCCCN4CC5(CCN(c6ccc(C(=O)NCc7ccc8c(c7)CN(C7CCC(=O)NC7=O)C8=O)nn6)C5)C4)c3)cn2)CC1` (stereo not drawn) [Compound 161], the IC50 in assay [1] is below 1 µM; in assay [3], 1 to 5 µM; in assay [4], 1 to 5 µM. The half-maximal degradation concentration (DC50) in assay [2] lay in the range of 0.1 to 1 µM.

Turning to `CC1(N)CCN(c2cnc(Sc3cccc(NC(=O)CCCCCCCCN4CCN(c5ccc(C(=O)NCc6ccc7c(c6)CN(C6CCC(=O)NC6=O)C7=O)nn5)CC4)c3)cn2)CC1` (stereo not drawn) [Compound 63], the IC50 in assay [1] is below 1 µM; in assay [3], below 1 µM; in assay [4], 1 to 5 µM. The DC50 in assay [2] was below 0.1 µM.

With `CC1(N)CCN(c2cnc(Sc3cccc(NC(=O)CCCCCCCCN4C5CCC4CN(c4ccc(C(=O)NCc6ccc7c(c6)CN(C6CCC(=O)NC6=O)C7=O)nn4)C5)c3)cn2)CC1` (stereo not drawn) [Compound 119], the results for the IC50 in assay [1], in assay [3] and in assay [4] were below 1 µM, below 1 µM and 1 to 5 µM, respectively. Also, in assay [2], the DC50 is below 0.1 µM.

Consider `Cc1ncsc1-c1ccc([C@H](C)NC(=O)[C@@H]2C[C@@H](O)CN2C(=O)[C@@H](NC(=O)CCCCCCCCN2CCN(C(=O)CCC(=O)Nc3cccc(Sc4ncc(N5CCC(C)(N)CC5)nc4N)c3Cl)CC2)C(C)(C)C)cc1` [Compound 999], for which the IC50 was below 1 µM in assay [1], 1 to 5 µM in assay [3] and 1 to 5 µM in assay [4]. Besides, the DC50 in assay [2] is below 0.1 µM.

What is called DC50 is the midpoint of the concentration-degradation curve.
